Tested on: 349418-098-R-PDC complex spheroid viability
Experiment: Anticancer human tumor 349418-098-R-PDC patient-derived lung adenocarcinoma cell line growth inhibition [RAS]
Settings: for IC50: curve of first compound; for viability, T/C: stronger effect = lower value
Outline: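 Tumour cells grown as complex spheroids with HUVEC endothelial cells and mesenchymal stem cells, treated with RAS pathway inhibitor combinations. Each agent spans half-log steps from near clinical Cmax, or 10 microM where Cmax is unknown.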

[1] = second compound 0.000949 µM, first compound 0.0316 µM
[2] = second compound 0.000949 µM, first compound 0.1 µM
[3] = second compound 0.003 µM, first compound 0.0316 µM
[4] = second compound 0.003 µM, first compound 0.1 µM
[5] = second compound 0.00949 µM, first compound 0.0316 µM
[6] = second compound 0.00949 µM, first compound 0.1 µM
[7] = second compound 0.03 µM, first compound 0.0316 µM
[8] = second compound 0.03 µM, first compound 0.1 µM
[9] = second compound 0.0949 µM, first compound 0.0316 µM
[10] = second compound 0.0949 µM, first compound 0.1 µM
[11] = second compound 0.3 µM, first compound 0.0316 µM
[12] = second compound 0.3 µM, first compound 0.1 µM
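Also: spheroids exposed to compound for seven days before viability readout.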

C[C@@H](NC(=O)c1ncnc(N)c1Cl)c1ncc(C(=O)Nc2cc(C(F)(F)F)c(Cl)cn2)s1 + CCn1c(-c2cccnc2C(C)OC)c2c3cc(ccc31)N1CCOC(CC(NC(=O)C(C(C)C)N(C)C(=O)C3(F)CCN(C(=O)C#CC(C)(C)N(C)C)CC3)C(=O)N3CCCC(N3)C(=O)OCC(C)(C)C2)C1
IC50 (second compound 0.000949 µM): 1.28 µM
IC50 (second compound 0.003 µM): 1.5 µM
IC50 (second compound 0.00949 µM): 1.43 µM
IC50 (second compound 0.03 µM): 1.58 µM
IC50 (second compound 0.0949 µM): 1.9 µM
IC50 (second compound 0.3 µM): 1.23 µM
viability, T/C [1]: 113%
viability, T/C [2]: 106%
viability, T/C (second compound 0.000949 µM, first compound 0.316 µM): 90.3%
viability, T/C (second compound 0.000949 µM, first compound 1 µM): 55.4%
viability, T/C (second compound 0.000949 µM, first compound 3.16 µM): 29.4%
viability, T/C (second compound 0.000949 µM, first compound 10 µM): 20.2%
viability, T/C [3]: 117%
viability, T/C [4]: 97.5%
viability, T/C (second compound 0.003 µM, first compound 0.316 µM): 88.3%
viability, T/C (second compound 0.003 µM, first compound 1 µM): 58.2%
viability, T/C (second compound 0.003 µM, first compound 3.16 µM): 32.5%
viability, T/C (second compound 0.003 µM, first compound 10 µM): 19.4%
viability, T/C [5]: 94.7%
viability, T/C [6]: 92.5%
viability, T/C (second compound 0.00949 µM, first compound 0.316 µM): 73.9%
viability, T/C (second compound 0.00949 µM, first compound 1 µM): 47.5%
viability, T/C (second compound 0.00949 µM, first compound 3.16 µM): 45.1%
viability, T/C (second compound 0.00949 µM, first compound 10 µM): 18.4%
viability, T/C [7]: 114%
viability, T/C [8]: 84.2%
viability, T/C (second compound 0.03 µM, first compound 0.316 µM): 82%
viability, T/C (second compound 0.03 µM, first compound 1 µM): 61.4%
viability, T/C (second compound 0.03 µM, first compound 3.16 µM): 33.7%
viability, T/C (second compound 0.03 µM, first compound 10 µM): 19.5%
viability, T/C [9]: 97.2%
viability, T/C [10]: 96.5%
viability, T/C (second compound 0.0949 µM, first compound 0.316 µM): 89.3%
viability, T/C (second compound 0.0949 µM, first compound 1 µM): 72.4%
viability, T/C (second compound 0.0949 µM, first compound 3.16 µM): 32.5%
viability, T/C (second compound 0.0949 µM, first compound 10 µM): 16.8%
viability, T/C [11]: 107%
viability, T/C [12]: 81.2%
viability, T/C (second compound 0.3 µM, first compound 0.316 µM): 66.5%
viability, T/C (second compound 0.3 µM, first compound 1 µM): 57.4%
viability, T/C (second compound 0.3 µM, first compound 3.16 µM): 40.9%
viability, T/C (second compound 0.3 µM, first compound 10 µM): 14.8%

CC(C)n1nc(-c2ccc3oc(N)nc3c2)c2c(N)ncnc21 + CCn1c(-c2cccnc2C(C)OC)c2c3cc(ccc31)N1CCOC(CC(NC(=O)C(C(C)C)N(C)C(=O)C3(F)CCN(C(=O)C#CC(C)(C)N(C)C)CC3)C(=O)N3CCCC(N3)C(=O)OCC(C)(C)C2)C1
IC50 (second compound 0.000949 µM): 0.0013 µM
IC50 (second compound 0.003 µM): 0.0021 µM
IC50 (second compound 0.00949 µM): 0.00258 µM
IC50 (second compound 0.03 µM): 0.00286 µM
IC50 (second compound 0.0949 µM): 0.00142 µM
IC50 (second compound 0.3 µM): 0.00148 µM
viability, T/C (second compound 0.000949 µM, first compound 0.000316 µM): 97.3%
viability, T/C (second compound 0.000949 µM, first compound 0.001 µM): 54.3%
viability, T/C (second compound 0.000949 µM, first compound 0.00316 µM): 33.3%
viability, T/C (second compound 0.000949 µM, first compound 0.01 µM): 10.8%
viability, T/C [1]: 6.42%
viability, T/C [2]: 5.48%
viability, T/C (second compound 0.003 µM, first compound 0.000316 µM): 91.7%
viability, T/C (second compound 0.003 µM, first compound 0.001 µM): 70.3%
viability, T/C (second compound 0.003 µM, first compound 0.00316 µM): 39.7%
viability, T/C (second compound 0.003 µM, first compound 0.01 µM): 12.8%
viability, T/C [3]: 6.14%
viability, T/C [4]: 5.04%
viability, T/C (second compound 0.00949 µM, first compound 0.000316 µM): 91.2%
viability, T/C (second compound 0.00949 µM, first compound 0.001 µM): 82.2%
viability, T/C (second compound 0.00949 µM, first compound 0.00316 µM): 42.7%
viability, T/C (second compound 0.00949 µM, first compound 0.01 µM): 13.9%
viability, T/C [5]: 6.63%
viability, T/C [6]: 5.25%
viability, T/C (second compound 0.03 µM, first compound 0.000316 µM): 98.7%
viability, T/C (second compound 0.03 µM, first compound 0.001 µM): 81.4%
viability, T/C (second compound 0.03 µM, first compound 0.00316 µM): 47.7%
viability, T/C (second compound 0.03 µM, first compound 0.01 µM): 16.8%
viability, T/C [7]: 6.13%
viability, T/C [8]: 5.01%
viability, T/C (second compound 0.0949 µM, first compound 0.000316 µM): 90.4%
viability, T/C (second compound 0.0949 µM, first compound 0.001 µM): 55.9%
viability, T/C (second compound 0.0949 µM, first compound 0.00316 µM): 35.7%
viability, T/C (second compound 0.0949 µM, first compound 0.01 µM): 13.3%
viability, T/C [9]: 7.14%
viability, T/C [10]: 4.64%
viability, T/C (second compound 0.3 µM, first compound 0.000316 µM): 67.4%
viability, T/C (second compound 0.3 µM, first compound 0.001 µM): 64.7%
viability, T/C (second compound 0.3 µM, first compound 0.00316 µM): 22%
viability, T/C (second compound 0.3 µM, first compound 0.01 µM): 10.9%
viability, T/C [11]: 6.85%
viability, T/C [12]: 4.69%

NC1c2ccccc2OC12CCN(c1cnc3c(N4CCCc5ncccc54)n[nH]c3n1)CC2 (stereo unspecified) + C=CC(=O)N1CCN(c2nc(OCC3CCCN3C)nc3c(F)c(-c4nc(N)cc(C)c4C(F)(F)F)c(Cl)cc23)C(C)C1
IC50 (second compound 0.00316 µM): > 10 µM
IC50 (second compound 0.01 µM): > 10 µM
IC50 (second compound 0.0316 µM): > 10 µM
IC50 (second compound 0.1 µM): > 10 µM
IC50 (second compound 0.316 µM): > 10 µM
IC50 (second compound 1 µM): > 10 µM
viability, T/C (second compound 0.00316 µM, first compound 0.0316 µM): 106%
viability, T/C (second compound 0.00316 µM, first compound 0.1 µM): 85.4%
viability, T/C (second compound 0.00316 µM, first compound 0.316 µM): 93.2%
viability, T/C (second compound 0.00316 µM, first compound 1 µM): 75.5%
viability, T/C (second compound 0.00316 µM, first compound 3.16 µM): 102%
viability, T/C (second compound 0.00316 µM, first compound 10 µM): 55.8%
viability, T/C (second compound 0.01 µM, first compound 0.0316 µM): 113%
viability, T/C (second compound 0.01 µM, first compound 0.1 µM): 91.4%
viability, T/C (second compound 0.01 µM, first compound 0.316 µM): 110%
viability, T/C (second compound 0.01 µM, first compound 1 µM): 72.9%
viability, T/C (second compound 0.01 µM, first compound 3.16 µM): 93.9%
viability, T/C (second compound 0.01 µM, first compound 10 µM): 68.5%
viability, T/C (second compound 0.0316 µM, first compound 0.0316 µM): 114%
viability, T/C (second compound 0.0316 µM, first compound 0.1 µM): 100%
viability, T/C (second compound 0.0316 µM, first compound 0.316 µM): 67%
viability, T/C (second compound 0.0316 µM, first compound 1 µM): 86%
viability, T/C (second compound 0.0316 µM, first compound 3.16 µM): 82.3%
viability, T/C (second compound 0.0316 µM, first compound 10 µM): 71.1%
viability, T/C (second compound 0.1 µM, first compound 0.0316 µM): 100%
viability, T/C (second compound 0.1 µM, first compound 0.1 µM): 82.5%
viability, T/C (second compound 0.1 µM, first compound 0.316 µM): 83.1%
viability, T/C (second compound 0.1 µM, first compound 1 µM): 101%
viability, T/C (second compound 0.1 µM, first compound 3.16 µM): 119%
viability, T/C (second compound 0.1 µM, first compound 10 µM): 76.7%
viability, T/C (second compound 0.316 µM, first compound 0.0316 µM): 80%
viability, T/C (second compound 0.316 µM, first compound 0.1 µM): 92.7%
viability, T/C (second compound 0.316 µM, first compound 0.316 µM): 92.1%
viability, T/C (second compound 0.316 µM, first compound 1 µM): 91.1%
viability, T/C (second compound 0.316 µM, first compound 3.16 µM): 100%
viability, T/C (second compound 0.316 µM, first compound 10 µM): 64%
viability, T/C (second compound 1 µM, first compound 0.0316 µM): 64.5%
viability, T/C (second compound 1 µM, first compound 0.1 µM): 89.8%
viability, T/C (second compound 1 µM, first compound 0.316 µM): 74%
viability, T/C (second compound 1 µM, first compound 1 µM): 83.7%
viability, T/C (second compound 1 µM, first compound 3.16 µM): 71.2%
viability, T/C (second compound 1 µM, first compound 10 µM): 69.1%

From PubChem BioAssay AID2060904 (Molecular Pharmacology Branch, DTP, NCI, 2025)
